Here are results for one compound from patent US20100184683A1, “ANTIBACTERIAL AND ANTIFUNGAL PEPTIDES” (C3 JIAN, INC., priority 2009, published 2010).

Values after ≈ are worked out from the molar mass of the structure shown. Peptide text beside a SMILES is read from it.

One experiment deals with S. epidermidis. The experiment is classed as cell-based. An outline of the steps:
(§1)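 MIC read-out; medium and growth conditions specific to each test organism.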

The next experiment has as its system T. rubrum. The experiment is classed as cell-based, Trichophyton rubrum. Put shortly:
as §1

The subject of a further experiment is E. faecalis. The experiment is classed as cell-based, Enterococcus faecalis. Here is the method: In certain embodiments the MIC assays are performed as described herein in the Examples. For each organism, the media and growth conditions utilized is detailed in Table 8.
In certain embodiments the MIC assays are performed as follows: For each organism, the media and growth conditions utilized is detailed in Table 8.

A further experiment deals with MRSA. The experiment is classed as cell-based, Methicillin-resistant Staphylococcus aureus. Put shortly:
as §1

In another experiment the test system is B. subtilis. The experiment is classed as cell-based, Bacillus subtilis. Put shortly: as §1
The test system of the next experiment is C. albicans. In kind it is cell-based, Candida albicans. Put shortly: as §1
The test system of a further experiment is A. niger. The experiment is classed as cell-based, Aspergillus niger. Put shortly:
as §1

For `CC[C@H](C)[C@H](NC(=O)[C@H](C)NC(=O)[C@H](CO)NC(=O)[C@H](CC(=O)O)NC(=O)[C@H](Cc1ccc(O)cc1)NC(=O)[C@H](C)NC(=O)[C@@H](NC(=O)[C@H](CC(C)C)NC(=O)[C@H](C)NC(=O)[C@H](CC(C)C)NC(=O)[C@H](CO)NC(=O)CNC(=O)[C@H](Cc1ccccc1)NC(=O)[C@H](CCCNC(=N)N)NC(=O)[C@@H](N)CCSC)C(C)C)C(=O)N[C@@H](CCCCN)C(=O)N[C@@H](Cc1c[nH]cn1)C(=O)N[C@@H](CO)C(=O)N[C@@H](Cc1c[nH]c2ccccc12)C(=O)N1CCC[C@H]1C(=O)N[C@@H](CCCNC(=N)N)C(=O)N1CCC[C@H]1C(=O)N[C@@H](CO)C(=O)N[C@@H](CO)C(=O)N[C@H](C(=O)N[C@@H](CCCNC(=N)N)C(=O)N[C@@H](CCCNC(=N)N)C(=O)N[C@@H](CC(C)C)C(=O)N[C@@H](CCCNC(=N)N)C(=O)N[C@@H](CCSC)C(=O)O)C(C)C` [PF-672] (H-MRFGSLALVAYDSAIKHSWPRPSSVRRLRM-OH; N-terminus and C-terminus assumed), the MIC (usually the least concentration at which growth counts as inhibited) is 0.39 µM (≈ 1.36 µg/mL) in the experiment with S. epidermidis; 0.78 µM (≈ 2.72 µg/mL) in the experiment on T. rubrum; 3.13 µM (≈ 10.9 µg/mL) in the experiment with E. faecalis; 1.56 µM (≈ 5.44 µg/mL) with MRSA; 0.78 µM (≈ 2.72 µg/mL) against B. subtilis; 1.56 µM (≈ 5.44 µg/mL) with C. albicans. In addition, the MIC against A. niger turned out to be 3 µM (≈ 10.5 µg/mL).
